In ChEMBL document CHEMBL1129838, “Synthesis and pharmacological evaluation of sulfone substituted HIV protease inhibitors” (Bioorg Med Chem Lett, 1997) one finds IC50 and Ki data, which are given here for 20 molecules.

Experiment [1] concerns Human immunodeficiency virus 1. The experiment in a line: Antiviral activity against HIV-1 IIIB in H9 (human leukemia) cells. The experiment is classed as functional, organism-based.
The target of experiment [2] is Human immunodeficiency virus type 1 protease (Human immunodeficiency virus 1, UniProt Q72874). The experiment in a line: Inhibition of HIV-1 protease.
The mark [3] stands for this setting: Human immunodeficiency virus 1, H9.

Values joined by “and” are separate entries in the source; they are usually repeats but may differ in a detail not shown here. Equal values may be shown once.

For orientation: IC50 means the concentration that inhibits the measured activity by half. A lower IC50 goes with greater potency in that assay. As a reminder, the Ki is a measure of affinity in units of concentration, obtained from inhibition or displacement. A high value points to weaker binding.

`O=c1cc(C(CC2CC2)CC2CC2)oc(O)c1C(c1cccc(CS(=O)(=O)c2ccccn2)c1)C1CC1` (centres undefined): it took 7.7 µM to reach half-maximal inhibition in experiment [1] (setting [3]) (IC50). The molecule further yielded a Ki in experiment [2] of 0.0023 µM.

For `Cn1ccnc1S(=O)(=O)Nc1cccc(C(c2c(O)cc(C(CC3CC3)CC3CC3)oc2=O)C2CC2)c1` (centres undefined), the IC50 in experiment [1] (h9) was > 1 µM and < 3 µM. The molecule also showed a Ki in experiment [2] of 0.00073 µM.

In experiment [1] (setting [3]), `O=c1c2c(oc(O)c1C(c1cccc(CS(=O)(=O)c3ccccn3)c1)C1CC1)CCCCCC2` (centres undefined) returned an IC50 of 10 µM. The same molecule had a Ki in experiment [2] of 0.0019 µM.

In the case of `O=c1cc(C(CC2CC2)CC2CC2)oc(O)c1C(c1cccc(NS(=O)(=O)c2ccccn2)c1)C1CC1` (centres undefined), the IC50 in experiment [1] (h9) was > 1 µM and < 3 µM. Also, the Ki in experiment [2] worked out at 0.00066 µM.

Molecule `O=c1c2c(oc(O)c1C(c1cccc(CS(=O)(=O)c3ccc(F)cc3)c1)C1CC1)CCCCCC2` (centres undefined) showed an IC50 in experiment [1] (setting [3]) of 14.5 µM. The molecule also returned a Ki in experiment [2] of 0.0021 µM.

With `N#Cc1ccc(S(=O)(=O)Cc2cccc(C(c3c(O)oc4c(c3=O)CCCCCC4)C3CC3)c2)cc1` (centres undefined), the half-inhibitory concentration (IC50) in experiment [1] (setting [3]) worked out at 20.5 µM. This molecule also gave a Ki in experiment [2] of 0.0019 µM.

Consider `O=C(O)c1ccc(S(=O)(=O)Cc2cccc(C(c3c(O)c4c(oc3=O)CCCCCC4)C3CC3)c2)cc1` (centres undefined), for which the IC50 in experiment [1] (setting [3]) was > 30 µM. This molecule also came in with a Ki in experiment [2] of 0.007 µM.

Regarding `Cc1ccc(S(=O)(=O)Cc2cccc(C(c3c(O)c4c(oc3=O)CCCCCC4)C3CC3)c2)cc1` (centres undefined), in experiment [1] (setting [3]), the IC50 is > 30 µM. This molecule returned a Ki in experiment [2] of 0.0041 µM.

Consider `O=c1c2c(oc(O)c1C(c1cccc(CS(=O)(=O)c3ccccc3)c1)C1CC1)CCCCCC2` (centres undefined), for which the IC50 in experiment [1] (setting [3]) was > 30 µM. Moreover, the affinity in experiment [2] corresponds to a Ki of 0.006 µM.

Molecule `O=c1cc(C(CC2CC2)CC2CC2)oc(O)c1C(c1cccc(CS(=O)(=O)c2ccc(F)cc2)c1)C1CC1` (centres undefined) returned an IC50 in experiment [1] (setting [3]) of 19.8 µM. In addition, the Ki in experiment [2] is 0.019 µM.

Regarding `Cn1ccnc1S(=O)(=O)Nc1cccc(C(c2c(O)c3c(oc2=O)CCCCCC3)C2CC2)c1` (centres undefined), the IC50 in experiment [1] (setting [3]) is > 3 µM. Besides, in experiment [2], affinity was put at a Ki of 0.0011 µM.

In turn, `O=c1c2c(oc(O)c1C(c1cccc(NS(=O)(=O)c3ccccc3)c1)C1CC1)CCCCCC2` (centres undefined) gave an IC50 in experiment [1] (setting [3]) of 5 µM.

Regarding `O=c1c2c(oc(O)c1C(c1cccc(NS(=O)(=O)c3ccccn3)c1)C1CC1)CCCCCC2` (centres undefined), in experiment [1] (setting [3]), the IC50 is < 1 µM. The molecule further had a Ki in experiment [2] of 0.00086 µM.

Consider `O=C(O)c1ccc(S(=O)(=O)Nc2cccc(C(c3c(O)c4c(oc3=O)CCCCCC4)C3CC3)c2)cc1` (centres undefined), for which, in experiment [1] (setting [3]), the IC50 was > 10 µM.

`N#Cc1ccc(S(=O)(=O)Nc2cccc(C(c3c(O)c4c(oc3=O)CCCCCC4)C3CC3)c2)cc1` (centres undefined) yielded an IC50 in experiment [1] (setting [3]) of 1.5 µM.

Take `O=c1c2c(oc(O)c1C(c1cccc(NS(=O)(=O)c3ccc(F)cc3)c1)C1CC1)CCCCCC2` (centres undefined): the IC50 in experiment [1] (setting [3]) worked out at 2.1 µM.

Take `Cc1ccc(S(=O)(=O)Nc2cccc(C(c3c(O)c4c(oc3=O)CCCCCC4)C3CC3)c2)cc1` (centres undefined): the IC50 in experiment [1] (setting [3]) came to 3.6 µM.

In experiment [1] (setting [3]), `Cn1ccnc1S(=O)(=O)Cc1cccc(C(c2c(O)c3c(oc2=O)CCCCCC3)C2CC2)c1` (centres undefined) showed an IC50 of 20.4 µM. The same molecule gave a Ki in experiment [2] of 0.003 µM.

On to `Cn1ccnc1S(=O)(=O)Cc1cccc(C(c2c(O)cc(C(CC3CC3)CC3CC3)oc2=O)C2CC2)c1` (centres undefined), for which the IC50 in experiment [1] (setting [3]) amounted to 12 µM. Besides, the Ki in experiment [2] was 0.0031 µM.

As for `O=c1cc(C(CC2CC2)CC2CC2)oc(O)c1C(c1cccc(NS(=O)(=O)c2ccc(F)cc2)c1)C1CC1` (centres undefined), half-maximal inhibition in experiment [1] (setting [3]) (IC50) was put at 2.2 µM.
